{"source": "ChEMBL document CHEMBL4725363", "about": "(J Med Chem, 2020)", "key": {"[1]": {"biological_target": "cGMP-specific 3',5'-cyclic phosphodiesterase (Homo sapiens, UniProt O76074)", "assay": "Inhibition of human PDE5A1 (535-860 residues) expressed in Escherichia coli BL21 incubated for 15 mins using [3H]-cGMP as substrate by liquid scintillation counting method"}, "[2]": {"biological_target": "Cone cGMP-specific 3',5'-cyclic phosphodiesterase subunit alpha' (Homo sapiens, UniProt P51160)", "sequence (P51160 whole entry, the tested form may be a part)": "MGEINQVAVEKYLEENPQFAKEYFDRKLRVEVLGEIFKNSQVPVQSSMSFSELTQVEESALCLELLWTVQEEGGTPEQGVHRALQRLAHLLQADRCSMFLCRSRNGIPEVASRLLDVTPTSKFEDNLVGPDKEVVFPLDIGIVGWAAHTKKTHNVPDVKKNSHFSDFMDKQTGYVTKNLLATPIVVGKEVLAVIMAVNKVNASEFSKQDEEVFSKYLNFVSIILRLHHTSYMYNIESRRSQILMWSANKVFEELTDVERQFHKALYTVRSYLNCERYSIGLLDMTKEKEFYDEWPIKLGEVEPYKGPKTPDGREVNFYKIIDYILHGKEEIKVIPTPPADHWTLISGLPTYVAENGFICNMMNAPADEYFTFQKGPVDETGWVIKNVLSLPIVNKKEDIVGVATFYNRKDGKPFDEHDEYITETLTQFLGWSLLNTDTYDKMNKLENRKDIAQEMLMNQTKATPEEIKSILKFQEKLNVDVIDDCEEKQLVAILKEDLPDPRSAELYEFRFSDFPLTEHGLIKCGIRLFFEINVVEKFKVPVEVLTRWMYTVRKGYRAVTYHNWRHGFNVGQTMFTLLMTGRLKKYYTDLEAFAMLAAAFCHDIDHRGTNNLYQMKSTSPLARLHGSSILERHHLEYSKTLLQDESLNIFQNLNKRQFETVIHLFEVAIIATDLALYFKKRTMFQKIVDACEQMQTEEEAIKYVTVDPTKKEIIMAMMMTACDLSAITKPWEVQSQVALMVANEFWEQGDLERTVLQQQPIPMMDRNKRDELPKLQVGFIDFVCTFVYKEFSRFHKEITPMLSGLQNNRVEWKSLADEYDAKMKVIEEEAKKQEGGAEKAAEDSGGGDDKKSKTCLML", "assay": "Inhibition of human PDE6C (2-854 residues) expressed in Sf9 cells incubated for 15 mins using [3H]-cGMP as substrate by liquid scintillation counting method"}, "[3]": {"biological_target": "DNA topoisomerase 2-alpha (Homo sapiens) (UniProt P11388)", "assay": "Inhibition of Top2 (unknown origin) mediated supercoiled DNA relaxation at 100 uM"}, "[4]": {"biological_target": "T1, DNA topoisomerase 1 (Homo sapiens) (UniProt P11387)", "T1 sequence (whole entry)": "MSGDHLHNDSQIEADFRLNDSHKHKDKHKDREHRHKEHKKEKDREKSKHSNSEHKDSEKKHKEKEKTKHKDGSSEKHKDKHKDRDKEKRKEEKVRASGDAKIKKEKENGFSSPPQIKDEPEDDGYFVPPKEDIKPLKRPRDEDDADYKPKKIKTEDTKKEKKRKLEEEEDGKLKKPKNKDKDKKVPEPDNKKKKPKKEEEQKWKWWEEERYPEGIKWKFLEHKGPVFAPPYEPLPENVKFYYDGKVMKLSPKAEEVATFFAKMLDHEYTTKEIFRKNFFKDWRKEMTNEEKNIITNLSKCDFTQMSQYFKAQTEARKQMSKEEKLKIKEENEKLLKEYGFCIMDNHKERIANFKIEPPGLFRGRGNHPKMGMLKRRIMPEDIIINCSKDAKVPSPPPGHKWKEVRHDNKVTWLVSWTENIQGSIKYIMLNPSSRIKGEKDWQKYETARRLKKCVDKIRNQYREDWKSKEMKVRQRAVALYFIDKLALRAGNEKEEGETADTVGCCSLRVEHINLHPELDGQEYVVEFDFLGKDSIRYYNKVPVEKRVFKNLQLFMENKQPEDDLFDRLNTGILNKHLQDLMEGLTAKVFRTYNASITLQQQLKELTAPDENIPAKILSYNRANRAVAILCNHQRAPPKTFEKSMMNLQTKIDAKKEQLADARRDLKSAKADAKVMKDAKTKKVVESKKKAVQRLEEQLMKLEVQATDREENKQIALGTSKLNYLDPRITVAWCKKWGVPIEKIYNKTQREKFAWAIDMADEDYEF", "assay": "Inhibition of Top (unknown origin) mediated supercoiled DNA relaxation at 100 uM"}, "[5]": {"biological_target": "cAMP and cAMP-inhibited cGMP 3',5'-cyclic phosphodiesterase 10A (Homo sapiens, UniProt Q9Y233)", "sequence (Q9Y233 whole entry, the tested form may be a part)": "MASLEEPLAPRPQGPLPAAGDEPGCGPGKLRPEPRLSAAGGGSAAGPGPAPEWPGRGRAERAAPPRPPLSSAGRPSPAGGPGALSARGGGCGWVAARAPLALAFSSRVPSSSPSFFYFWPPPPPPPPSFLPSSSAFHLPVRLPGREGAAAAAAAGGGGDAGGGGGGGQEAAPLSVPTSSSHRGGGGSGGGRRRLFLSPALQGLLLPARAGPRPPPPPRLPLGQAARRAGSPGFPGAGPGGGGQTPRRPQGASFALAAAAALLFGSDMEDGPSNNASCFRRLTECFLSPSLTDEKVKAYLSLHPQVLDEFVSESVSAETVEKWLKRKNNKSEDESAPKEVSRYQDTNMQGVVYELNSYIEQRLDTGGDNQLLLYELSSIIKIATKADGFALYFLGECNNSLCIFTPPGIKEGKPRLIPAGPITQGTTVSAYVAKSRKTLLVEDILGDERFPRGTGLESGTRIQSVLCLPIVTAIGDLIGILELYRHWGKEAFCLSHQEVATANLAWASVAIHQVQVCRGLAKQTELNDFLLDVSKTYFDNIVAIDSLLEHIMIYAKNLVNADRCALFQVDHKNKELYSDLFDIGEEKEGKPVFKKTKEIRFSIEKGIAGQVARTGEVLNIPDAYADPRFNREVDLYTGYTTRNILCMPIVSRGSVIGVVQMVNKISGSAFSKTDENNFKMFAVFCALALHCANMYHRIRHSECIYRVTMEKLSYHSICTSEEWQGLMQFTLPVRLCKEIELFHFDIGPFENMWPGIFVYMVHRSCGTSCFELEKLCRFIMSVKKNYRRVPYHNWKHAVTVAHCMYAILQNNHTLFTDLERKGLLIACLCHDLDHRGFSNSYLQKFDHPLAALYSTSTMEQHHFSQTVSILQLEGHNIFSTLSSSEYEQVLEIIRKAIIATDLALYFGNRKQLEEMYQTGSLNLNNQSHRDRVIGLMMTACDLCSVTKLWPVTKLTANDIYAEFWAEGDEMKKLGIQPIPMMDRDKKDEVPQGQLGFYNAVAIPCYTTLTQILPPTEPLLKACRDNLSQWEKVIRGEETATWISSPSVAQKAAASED", "assay": "Inhibition of human PDE10A catalytic domain (449 to 770 residues) using [3H]-cAMP as substrate after 15 mins by liquid scintillation counting method"}, "[6]": {"biological_target": "Dual 3',5'-cyclic-AMP and -GMP phosphodiesterase 11A (Homo sapiens, UniProt Q9HCR9)", "sequence (Q9HCR9 whole entry, the tested form may be a part)": "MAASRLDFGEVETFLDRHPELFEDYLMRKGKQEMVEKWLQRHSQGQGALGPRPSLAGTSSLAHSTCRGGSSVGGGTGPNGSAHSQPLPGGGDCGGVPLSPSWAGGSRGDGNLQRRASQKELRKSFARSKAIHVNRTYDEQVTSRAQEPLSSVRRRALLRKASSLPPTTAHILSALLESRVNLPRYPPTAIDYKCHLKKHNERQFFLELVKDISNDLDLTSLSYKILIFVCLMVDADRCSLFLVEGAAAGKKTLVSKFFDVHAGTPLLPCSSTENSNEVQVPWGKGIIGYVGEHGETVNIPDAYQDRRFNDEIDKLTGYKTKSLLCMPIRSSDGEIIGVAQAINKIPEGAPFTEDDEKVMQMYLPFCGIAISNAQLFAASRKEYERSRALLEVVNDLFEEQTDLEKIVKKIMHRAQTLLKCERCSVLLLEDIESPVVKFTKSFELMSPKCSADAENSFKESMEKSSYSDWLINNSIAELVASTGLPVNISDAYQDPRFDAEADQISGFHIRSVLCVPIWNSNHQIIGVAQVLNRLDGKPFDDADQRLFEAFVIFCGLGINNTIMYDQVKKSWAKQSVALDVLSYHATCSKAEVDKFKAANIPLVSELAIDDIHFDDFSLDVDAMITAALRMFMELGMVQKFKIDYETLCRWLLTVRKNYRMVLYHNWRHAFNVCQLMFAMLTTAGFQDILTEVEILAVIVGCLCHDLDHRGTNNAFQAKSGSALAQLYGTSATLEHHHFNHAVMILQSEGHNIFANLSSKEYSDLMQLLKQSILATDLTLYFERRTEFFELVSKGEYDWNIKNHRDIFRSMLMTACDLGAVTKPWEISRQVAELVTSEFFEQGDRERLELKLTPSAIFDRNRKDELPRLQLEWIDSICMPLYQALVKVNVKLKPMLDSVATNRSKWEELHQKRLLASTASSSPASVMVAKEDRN", "assay": "Inhibition of PDE11A catalytic domain (unknown origin) using [3H]-cAMP or [3H]-[…] as substrate after 15 mins by liquid scintillation counting method"}, "[7]": {"assay": "Half life in Sprague-Dawley rat at 2.5 mg/kg, iv after 24 hrs by LC-MS/MS analysis", "type": "ADME, organism-based", "settings": "in vivo"}, "[8]": {"assay": "Tmax in Sprague-Dawley rat at 2.5 mg/kg, iv after 24 hrs by LC-MS/MS analysis", "type": "ADME, organism-based", "settings": "in vivo"}, "[9]": {"assay": "Cmax in Sprague-Dawley rat at 2.5 mg/kg, iv after 24 hrs by LC-MS/MS analysis", "type": "ADME, organism-based", "design": "route intravenous, time 24 hrs, dose 2.5 mg/kg", "settings": "in vivo"}, "[10]": {"assay": "AUC (0 to t) in Sprague-Dawley rat at 2.5 mg/kg, iv after 24 hrs by LC-MS/MS analysis", "type": "ADME, organism-based", "design": "route intravenous, dose 2.5 mg/kg, time 24 hrs", "settings": "in vivo"}, "[11]": {"assay": "AUC (0 to infinity) in Sprague-Dawley rat at 2.5 mg/kg, iv after 24 hrs by LC-MS/MS analysis", "type": "ADME, organism-based", "design": "route intravenous, time 24 hrs, dose 2.5 mg/kg", "settings": "in vivo"}, "[12]": {"assay": "Half life in Sprague-Dawley rat at 5 mg/kg, po after 24 hrs by LC-MS/MS analysis", "type": "ADME, organism-based", "settings": "in vivo"}, "[13]": {"assay": "Tmax in Sprague-Dawley rat at 5 mg/kg, po after 24 hrs by LC-MS/MS analysis", "type": "ADME, organism-based", "settings": "in vivo"}, "[14]": {"assay": "AUC (0 to t) in Sprague-Dawley rat at 5 mg/kg, po after 24 hrs by LC-MS/MS analysis", "type": "ADME, organism-based", "design": "route oral, time 24 hrs, dose 5 mg/kg", "settings": "in vivo"}, "[15]": {"assay": "MRT (0 to t) in Sprague-Dawley rat at 5 mg/kg, po after 24 hrs by LC-MS/MS analysis", "type": "ADME, organism-based", "settings": "in vivo"}, "[16]": {"assay": "Oral bioavailability in Sprague-Dawley rat at 5 mg/kg after 24 hrs by LC-MS/MS analysis", "type": "ADME, organism-based", "settings": "in vivo"}, "[17]": {"assay": "Inhibition of human PDE5A1 D563A mutant expressed in Escherichia coli BL21 incubated for 15 mins using [3H]-cGMP as substrate by liquid scintillation counting method"}, "[18]": {"assay": "Acute toxicity in KM mouse at 1000 to 1500 mg/kg, po administered as single dose measured every 24 hrs for 14 days", "type": "organism-based", "settings": "in vivo, 336 h, dose 1000-1500 mg/kg, time 14 day"}, "[19]": {"tested_on": "Rattus norvegicus", "assay": "Suppression of hypertension pressure in Wistar rat model of pulmonary hypertension assessed as reduction in MCT-induced wall thickness of small pulmonary arteries at 20 mg/kg/day, po for 3 weeks", "type": "functional, organism-based"}, "[20]": {"tested_on": "Rattus norvegicus", "assay": "Suppression of hypertension pressure in Wistar rat model of pulmonary hypertension assessed as dilation of small pulmonary vessels arteries at 20 mg/kg/day, po for 3 weeks by H and E staining based microscopy", "type": "functional, organism-based"}, "[21]": {"biological_target": "T2, Cytochrome P450 2B6 (Homo sapiens, UniProt P20813)", "T2 sequence (P20813 whole entry)": "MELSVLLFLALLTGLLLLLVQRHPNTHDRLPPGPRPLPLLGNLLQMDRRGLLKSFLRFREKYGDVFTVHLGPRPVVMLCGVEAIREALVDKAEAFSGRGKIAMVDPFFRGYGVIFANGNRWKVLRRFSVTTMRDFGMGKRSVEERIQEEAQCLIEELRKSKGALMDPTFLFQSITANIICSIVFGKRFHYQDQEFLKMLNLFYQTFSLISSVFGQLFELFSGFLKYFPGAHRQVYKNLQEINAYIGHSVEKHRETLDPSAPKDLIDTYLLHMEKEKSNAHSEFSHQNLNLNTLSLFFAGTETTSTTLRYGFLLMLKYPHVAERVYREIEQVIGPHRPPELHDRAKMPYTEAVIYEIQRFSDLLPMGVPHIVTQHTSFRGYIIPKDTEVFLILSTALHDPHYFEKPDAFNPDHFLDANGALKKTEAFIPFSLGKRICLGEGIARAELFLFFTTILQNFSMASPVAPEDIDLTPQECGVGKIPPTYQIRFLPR", "assay": "Inhibition of CYP2B6 (unknown origin)", "type": "ADME"}, "[22]": {"biological_target": "Cytochrome P450 2C9 (Homo sapiens, UniProt P11712)", "sequence (P11712 whole entry)": "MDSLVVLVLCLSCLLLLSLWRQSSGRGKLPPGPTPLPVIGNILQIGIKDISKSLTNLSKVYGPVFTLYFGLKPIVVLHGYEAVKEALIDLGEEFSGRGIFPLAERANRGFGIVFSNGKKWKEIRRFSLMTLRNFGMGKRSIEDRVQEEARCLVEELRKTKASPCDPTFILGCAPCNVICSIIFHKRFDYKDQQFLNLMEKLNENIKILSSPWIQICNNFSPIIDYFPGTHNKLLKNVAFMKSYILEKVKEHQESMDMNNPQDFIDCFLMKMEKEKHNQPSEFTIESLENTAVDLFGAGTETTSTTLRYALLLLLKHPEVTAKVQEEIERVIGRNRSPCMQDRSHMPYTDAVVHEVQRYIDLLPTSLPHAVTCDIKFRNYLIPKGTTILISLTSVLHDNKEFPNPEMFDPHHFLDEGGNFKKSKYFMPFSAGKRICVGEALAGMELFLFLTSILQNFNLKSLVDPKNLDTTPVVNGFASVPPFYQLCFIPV", "assay": "Inhibition of CYP2C9 (unknown origin)", "type": "ADME"}, "[23]": {"biological_target": "Cytochrome P450 2D6 (Homo sapiens, UniProt P10635)", "sequence (P10635 whole entry)": "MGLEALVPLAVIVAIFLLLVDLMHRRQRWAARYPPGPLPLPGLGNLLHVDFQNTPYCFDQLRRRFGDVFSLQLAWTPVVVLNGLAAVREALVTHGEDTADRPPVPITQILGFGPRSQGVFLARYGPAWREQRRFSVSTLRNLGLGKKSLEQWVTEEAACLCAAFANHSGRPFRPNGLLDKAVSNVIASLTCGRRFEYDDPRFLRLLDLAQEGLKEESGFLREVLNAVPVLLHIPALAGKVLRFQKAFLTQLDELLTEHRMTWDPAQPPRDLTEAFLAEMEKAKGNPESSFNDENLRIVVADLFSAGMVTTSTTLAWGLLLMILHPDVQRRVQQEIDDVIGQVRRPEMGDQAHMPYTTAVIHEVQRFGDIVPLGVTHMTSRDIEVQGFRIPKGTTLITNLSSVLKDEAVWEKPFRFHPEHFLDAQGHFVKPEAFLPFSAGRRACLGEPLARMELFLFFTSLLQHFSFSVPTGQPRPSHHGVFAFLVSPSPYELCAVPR", "assay": "Inhibition of CYP2D6 (unknown origin)", "type": "ADME"}, "[24]": {"assay": "Acute toxicity in KM mouse at 1000 to 1500 mg/kg, po administered as single dose measured every 24 hrs for 14 days relative to control", "type": "organism-based", "settings": "in vivo, 336 h, dose 1000-1500 mg/kg, time 14 day"}}, "note": "The source made the active and inactive calls. The calls are words filed in the database; no cut-off is given here.", "data": [{"smiles": "COc1ccc2c3c([nH]c2c1)[C@@H]1N(CC3)C(=O)c2c(OC)cccc2N1C", "values": [{"measurement": "IC50", "setting": "[1]", "result": 0.042, "unit": "µM"}, {"measurement": "IC50", "setting": "[2]", "result": "> 150", "unit": "µM"}, {"measurement": "inhibition", "setting": "[3]", "result": "inactive"}, {"measurement": "inhibition", "setting": "[4]", "result": "inactive"}, {"measurement": "IC50", "setting": "[5]", "result": 3, "unit": "µM"}, {"measurement": "IC50", "setting": "[6]", "result": "> 30", "unit": "µM"}, {"measurement": "half-life", "setting": "[7]", "result": 13.2, "unit": "min"}, {"measurement": "Tmax", "setting": "[8]", "result": 4.98, "unit": "min"}, {"measurement": "Cmax", "setting": "[9]", "result": 1800, "unit": "ng/mL"}, {"measurement": "AUC(0-t) at 24 h", "setting": "[10]", "result": 519, "unit": "ng·h/mL"}, {"measurement": "AUC(0-inf)", "setting": "[11]", "result": 520, "unit": "ng·h/mL"}, {"measurement": "half-life", "setting": "[12]", "result": 85.8, "unit": "min"}, {"measurement": "Tmax", "setting": "[13]", "result": 49.8, "unit": "min"}, {"measurement": "AUC(0-t) at 24 h", "setting": "[14]", "result": 146, "unit": "ng·h/mL"}, {"measurement": "MRT last at 24 h", "setting": "[15]", "result": 191, "unit": "min"}, {"measurement": "bioavailability", "setting": "[16]", "result": 14, "unit": "%"}, {"measurement": "IC50", "setting": "[17]", "result": 2.48, "unit": "µM"}, {"measurement": "Activity", "setting": "[18]", "result": "Non-Toxic"}, {"measurement": "Activity", "setting": "[19]", "result": "Active"}, {"measurement": "Activity", "setting": "[20]", "result": "Active"}, {"measurement": "IC50", "setting": "[21]", "result": 10, "unit": "µM"}, {"measurement": "IC50", "setting": "[22]", "result": 10, "unit": "µM"}, {"measurement": "IC50", "setting": "[23]", "result": 10, "unit": "µM"}, {"measurement": "Activity", "setting": "[24]", "result": "> 1.5", "unit": "g/kg"}]}]}
